Legend:
[1] = Moisture content of bupropion salts by KF; format: physicochemical
Method: (§1) The eight salts were first evaluated by HPLC, KF, pH and DSC for purity, water content, aqueous pH and possible polymorphs.
(§2) The salts were analysed by DSC (at 10° C./min from 30° C. up to 400° C.) and the pH (aq. 0.5%), and the moisture content by KF were also measured. The TGA was performed on the HCl, maleate, tosylate and HBr salts.

[2] = pH of 0.5% aqueous solution of bupropion salts; format: physicochemical
Method: as §1, §2

[3] = Forced degradation stability study of bupropion salts spiked with placebo/excipients, closed vials, 40° C./75% RH, HPLC assay and impurities
[4] = Comparative forced degradation of bupropion HCl and HBr API salts, closed glass bottle, 40° C./75% RH, HPLC; format: physicochemical; conditions: for % Assay / % Impurities 3-CBZ / % Impurities 20U78/dilu / % Impurities 827U76 / % Impurities 852U77 / % Impurities Total unknown / Total (%) impurities: closed glass bottle
Method: Further stability tests were performed by directly comparing bupropion HBr and bupropion HCl salts in forced degradation studies. […] At specified times, the material in the bottles was analyzed for the presence of degradation products and % potency (% assay).
The samples were exposed to the above conditions in a closed bottle for few days, and then subjected to HPLC analysis. The amount of the main degradation products present after treatment were compared with those amounts that were present initially.
The samples were analysed after 14 and 24 days (study-1) and 10 days (study II), in a quantitative manner by direct treatment of the whole content of the bottle as per the HPLC standard test method (P05.901.10).

[5] = Release of bupropion base from bupropion HCl and HBr; format: physicochemical
Method: It was previously observed that when 150 mg of bupropion HCl was tested for its release of bupropion, the base value that was released was 130 mg.

[6] = Forced degradation of bupropion HBr and HCl in the presence of excipients at 55° C., 55° C./100% RH, 100° C. and 105° C.; format: physicochemical; conditions: 24 and 48 hours at 55° C., 105 degrees C., hydrobromide
Method: Forced degradation studies were also performed on bupropion HBr and bupropion HCl API's in the presence of standard excipients used in pharmaceutical formulations.
Further forced degradation studies were carried out at 55° C., at 55° C. and 100% relative humidity, at 100° C., and at 105° C. on both the HCl and HBr Bupropion salts in the presence of excipients. The average weight of the excipients and the weight of the active pharmaceutical ingredient (API) present in the samples are presented in Table 72. […] FIG. 53 is a graph showing the loss of each salt over time in a TGA experiment at 100° C.

[7] = TGA experiment at 100° C., loss of API salt over time; format: physicochemical; conditions: TGA at 100° C.
Method: The average weight of the excipients and the weight of the active pharmaceutical ingredient (API) present in the samples are presented in Table 72. […] FIG. 53 is a graph showing the loss of each salt over time in a TGA experiment at 100° C.

[8] = In IPA/EtOH, 32 days, closed vials
[9] = In water, 32 days, closed vials
[10] = salt plus excipients, 20 days, closed vial, 40° C./75% RH
[11] = repeat study, 40 C/75% RH, 10 Days, Lot# STN07491, hydrobromide
[12] = repeat study, 40 C/75% RH, 10 Days, Lot# STN07492, hydrobromide
[13] = repeat study, 40 C/75% RH, Initial, Lot# STN07491, hydrobromide
[14] = repeat study, 40 C/75% RH, Initial, Lot# STN07492, hydrobromide

Br.CC(NC(C)(C)C)C(=O)c1cccc(Cl)c1 (stereo not shown) [Bupropion HBr, bupropion hydrobromide]
Moisture Content (KF) ([1]; Table 3, supplier API): 0.00%
KF (moisture content), Original (Initial APIs) ([1]; original API salts): 0.00%
pH (aq. 0.5%), Original (Initial APIs) ([2]; 0.5% aqueous solution, original API salts): 5.92
pH (aq. 0.5%) ([2]; Table 3, supplier API): 5.92
Order of stability (assay) with IPA & EtOH ([3]; DS and excipients spiked with IPA & EtOH, 32 days, closed vials, 40° C.): HCl>HBr>tosylate>maleate>fumarate
Order of stability (assay) with water ([3]; DS and excipients spiked with water, 32 days, closed vials, 40° C.): tosylate>maleate>HCl>HBr>fumarate
Stability in the forced degradation stability studies, overall ([3]; DS and spiked DS, 40° C./75% RH): superior stability in a closed container
Content of impurity 3-CBZ, order of salts [3, 8]: maleate > HBr > HCl > Fumarate
Content of impurity 852U77, order of salts [3, 8]: fumarate > HBr ≈ HCl ≈ maleate ≈ tosylate
Total imp., order of salts [3, 8]: fumarate > maleate > HBr > HCl > tosylate
Content of impurity 3-CBZ, order of salts [3, 9]: HCl > HBr ≈ maleate ≈ fumarate
Content of impurity 852U77, order of salts [3, 9]: fumarate > HBr > maleate > HCl
Total imp., order of salts [3, 9]: fumarate > HBr > HCl > tosylate > maleate
Degradation products and retained activity compared with all salts tested ([3]; open and closed vials, 40 degrees C./75% RH, 'after at least 3 months or after at least 6 months'): least amount of degradation products
Impurities (3-CBZ, 852U77 & total) compared to the other salts [3, 10]: lowest
Order of stability (assay, % potency) [3, 10]: HBr>HCl=tosylate>fumarate>maleate
Impurities and % potency compared to the HCl salt ([4]; closed bottles, 40 degrees C. and 75% relative humidity): amount of impurities was consistently lower and the % potency was consistently higher
% Assay ([4]; 40° C./75% RH, 14-Days): 98.8%
% Impurities 3-CBZ ([4]; 40° C./75% RH, 14-Days): 0.015%
% Impurities 20U78/dilu ([4]; 40° C./75% RH, 14-Days): 0.048%
% Impurities 827U76 ([4]; 40° C./75% RH, 14-Days): 0.012%
% Impurities 852U77 ([4]; 40° C./75% RH, 14-Days): 0.058%
% Impurities Total unknown ([4]; 40° C./75% RH, 14-Days): 0.105%
Total (%) impurities ([4]; 40° C./75% RH, 14-Days): 0.23%
% Assay ([4]; 40° C./75% RH, 24 Days): 99.5%
% Impurities 3-CBZ ([4]; 40° C./75% RH, 24 Days): 0.022%
% Impurities 20U78/dilu ([4]; 40° C./75% RH, 24 Days): 0.038%
% Impurities 827U76 ([4]; 40° C./75% RH, 24 Days): 0.016%
% Impurities 852U77 ([4]; 40° C./75% RH, 24 Days): 0.052%
% Impurities Total unknown ([4]; 40° C./75% RH, 24 Days): 0.104%
Total (%) impurities ([4]; 40° C./75% RH, 24 Days): 0.23%
% Assay ([4]; 40° C./75% RH, Initial): 99.6%
% Impurities 3-CBZ ([4]; 40° C./75% RH, Initial): 0.007%
% Impurities 20U78/dilu ([4]; 40° C./75% RH, Initial): 0.044%
% Impurities 852U77 ([4]; 40° C./75% RH, Initial): 0.009%
% Impurities Total unknown ([4]; 40° C./75% RH, Initial): 0.098%
Total (%) impurities ([4]; 40° C./75% RH, Initial): 0.16%
% Impurities 827U76 ([4]; repeat study, 40 C/75% RH, 10 Days): 0.039%
% Assay [4, 11]: 98.2%
% Impurities 3-CBZ [4, 11]: 0.070%
% Impurities 20U78/dilu [4, 11]: 0.051%
% Impurities 852U77 [4, 11]: 0.125%
% Impurities Total unknown [4, 11]: 0.129%
Total (%) impurities [4, 11]: 0.42%
% Assay [4, 12]: 99.2%
% Impurities 3-CBZ [4, 12]: 0.031%
% Impurities 20U78/dilu [4, 12]: 0.044%
% Impurities 852U77 [4, 12]: 0.055%
% Impurities Total unknown [4, 12]: 0.15%
Total (%) impurities [4, 12]: 0.24%
% Impurities 20U78/dilu ([4]; repeat study, 40 C/75% RH, Initial): 0.041%
% Assay [4, 13]: 99.5%
% Impurities 3-CBZ [4, 13]: 0.011%
% Impurities Total unknown [4, 13]: 0.129%
Total (%) impurities [4, 13]: 0.17%
% Assay [4, 14]: 99.6%
% Impurities 3-CBZ [4, 14]: 0.007%
% Impurities Total unknown [4, 14]: 0.194%
Total (%) impurities [4, 14]: 0.23%
Base value of bupropion released ([5]; 150 mg of the salt tested): 112 mg
Base value of bupropion released ([5]; 174 mg of the salt tested): 130 mg
Degradation in the presence of excipients (formation of impurities, words) ([6]; listed as HBr): lowest amount of degradation
Degradation in the presence of excipients (formation of impurities, words) ([6]; listed as bupropion HBr): significant improvements in stability compared to bupropion HCl
Disproportionation of the salt at elevated temperature [7]: did not occur
